Key:
[1] = test system: C57BL/6J mice fed control chow diet (CHD) or high fat diet (HFD); test: Chronic subcutaneous infusion in mice fed control chow or high fat diet: body growth, glucose homeostasis (IPGTT), insulin secretion, organ weight, liver triglycerides; format: in vivo, mouse
Experimental: Six weeks-old C57BL/6J male mice (Janvier Labs, Courtaboeuf, France) were received and acclimated in specific pathogen free (SPF) maintenance condition. Mice had free access to a standard chow diet (R04-40, Safe, Augy, France) and were kept on 12 h light/dark cycle. After one week, a group of 12 mice was fed control carbohydrate diet (CHD) (D 12450Ki, Research diets, NJ) and a group of 12 mice was fed high fat (60% fat and sucrose) diet (HFD) (D12492i, Research diets, NJ).
After three weeks of metabolite treatment (i.e. four weeks of HFD feeding) an intra-peritoneal glucose tolerance test (IPGTT) (2 g/kg) was performed in conscious mice following an overnight fast. Blood was collected from the tail vein before glucose injection and 15, 30, 60 and 120 minutes afterwards. Additional blood samples were collected during the IPGTT in GK rats 15, 90, 180 and 240 minutes after glucose injection. Blood glucose levels were determined using an Accu-Check® Performa (Roche Diagnostics, Meylan, France). Additional blood samples were collected at base line and 30 minutes after glucose injection in Microvette® CB 300 Lithium Heparin (Sarstedt, Marnay, France). Plasma was separated by centrifugation and stored at −80° C. until insulin radioimmunoassay. Evaluation of overall glucose tolerance was obtained from cumulative glycemia (GCum) and the ΔG, which were determined by the total increment of plasma glucose values during the IPGTT (GCum) and the cumulative glycemia during the test above baseline (ΔG). After six weeks of metabolite treatment, mice were killed by decapitation and organ were dissected and weighed. Half of liver, fat and pancreas samples were snap frozen in liquid nitrogen and stored at −80° C. for molecular studies, and the second half processed for histopathology. All procedures were authorized following review by the institutional ethic committee and carried out under national license condition (Ref 00486.02).
Blood glucose was measured using an Accu-Check® Performa (Roche Diagnostics, Meylan, France) and plasma insulin was determined using Insulin ELISA kits (Mercodia, Uppsala, Sweden). For determination of liver triglycerides, liver samples (100 mg) were homogenized and incubated in NonidetP-40 (5%) and supernatants containing triglycerides were collected. Triglycerides concentration was quantified in the supernatant fraction using a colorimetric assay (ab65336, Abcam, Paris, France) by measuring OD at 570 nm. The ratio NAD/NADH was determined using a quantification kit (MAK037; SigmaAldrich, St Quentin, France) on extracts prepared from 20 mg pancreas tissue. Samples were homogenized in the extraction buffer and clarified by centrifugation. Supernatant was deproteinized by filtration through a 10-kDa cutoff spin filter (Millipore SAS, Molsheim, France). The assay was then performed according to the manufacturer's instructions.
As expected, mice fed HFD rapidly gained more weight than mice fed control diet and developed fasting hyperglycemia and marked glucose intolerance (FIG. 1A-1F).

Goto-Kakizaki (GK) rats = test: Pancreas histology and immunohistochemistry of chronically treated GK rats; format: in vivo, rat
Experimental: Pancreas sections were labeled either with Hematoxylin-Eosin and Immunohistochemistry to determine insulin positive area (FIG. 9F) and treated with Ki 67 and DAPI to stain and quantify proliferative nuclei (FIG. 9G). […] All measures are from 6 rats per group. Data were analyzed using the unpaired Mann-Whitney test. […] Tissues were drop-fixed in 4% paraformaldehyde (Sigma-Aldrich, Saint Quentin Fallavier, France) immediately after collection and put through an automated carousel processor for dehydration, clearing, and paraffin embedding (Leica, Nanterre, France). Sections were prepared for liver (6 μm), pancreas (6 μm) and adipose tissue ([…]) and mounted on slides (DPX polymerizing mountant, Sigma-Aldrich, Saint Quentin Fallavier, France). Hematoxylin and Eosin (H&E) was used to evaluate tissue morphology. Epitope-specific antibodies were used for immunohistochemistry detection of insulin on pancreas sections (Dako, Saint Aubin, France). […] Quantitative expression of all immunostainings was performed using positive pixels algorithm (Indica Labs, Corrales, N. Mex.). […] Results are expressed as percentage of positive pixels, within islets where indicated. The quantification method is an automated observer-independent process based on section scanning and application of publicly available algorithms. […]

pancreas gene expression = test: Quantitative RT-PCR in pancreas of chronically treated GK rats; format: in vivo, rat
Experimental: RNA was extracted from pancreas, adipose tissue and liver using the RNeasy RNA Mini Kit (Qiagen, Courtaboeuf, France). Reverse transcription was performed from a 20 μL reaction mixture with 500 ng RNA using M-MLV reverse transcriptase kit (ThermoFisher, Villebon, France). Quantitative RT-PCR was performed using sequence specific primers and the MESA green kit for SYBR green assays (Eurogentec, Angers, France). We used 18S and/or cyclophilin house keeping genes to normalize relative quantification of mRNA levels using the Livak and […] methods ([…], 2001).

isolated mouse islets = test: Incubation of isolated mouse islets: insulin release, insulin content, Ki67 proliferation; format: cell-based
[2] = mice fed control diet, IPGTT, vs saline

In the case of Cc1ccc(O)cc1 [4-cresol], the “effect on body weight” value ([1]; HFD-fed mice) is reported as “strongly significant”, the “effect on glycemic control” value ([1]; HFD-fed mice) is reported as “strongly significant” and the “effect on insulin secretion” value ([1]; HFD-fed mice) is reported as “strongly significant”. For the same compound, the liver weight ([1]; HFD-fed mice) was “reduced”, the ΔG parameter ([1]; HFD-fed mice, IPGTT, vs HFD saline) was “normalized to the level of mice fed chow diet and treated with saline” and the fasting glycemia ([1]; HFD-fed mice, vs HFD saline) was “strong reduction”. The fasting hyperinsulinemia ([1]; HFD-fed mice, vs HFD saline) was “strong reduction”, the “increase in pancreas weight” value ([1]; both diet groups, 6 weeks, vs saline) was 48.9% and the liver triglycerides content ([1]; both diet groups, vs saline) was “systematic and dramatic reduction”. For the same compound, the heart weight ([1]; mice fed CHD or HFD, 6 weeks) was “not affected”, the kidney weight ([1]; mice fed CHD or HFD, 6 weeks) was “not affected” and the “acute glycemic response to the glucose challenge” value [1, 2] was “significant reduction”. For the same compound, the glucose tolerance [1, 2] was “improved”, the BMI ([1]; mice fed control diet, end of experiment, vs saline) was “significant decrease in BMI” and the body weight ([1]; mice fed control diet, s.c. infusion 0.5 mg/kg/day, 42 days, vs saline) was “progressive reduction in body weight”. The glucose-stimulated insulin secretion ([1]; mice fed control diet, vs controls) was “significant increase”, the “cumulative glycemia during the IPGTT” value ([1]; mice fed control diet, vs saline) was “significant reduction” and the “cell proliferation (Ki 67 labeling) in pancreas” value (Goto-Kakizaki (GK) rats) was “increased cell proliferation”. The insulin positive area (Goto-Kakizaki (GK) rats) was “significant increase”, the “stimulatory effects on expression of Sirt1, Ins1, Hnf1α, IL10 and Vegfa in pancreas” value (pancreas gene expression; GK rats) was “replicated” and the “pancreatic expression of ERα” value (pancreas gene expression; GK rats in vivo) was “does not regulate significantly”. For the same compound, the DYRK1A pancreatic transcription (pancreas gene expression; GK rats, chronic treatment) was “significant downregulation”, the “expression of genes encoding amylase, IL6 and Tnf in pancreas” value (pancreas gene expression; GK rats, differences to saline not statistically significant) was “strongly altered” and the “islet cell proliferation (KI67)” value (isolated mouse islets; 10 nM) was “significant effect”. For the same compound, the “increase in insulin release under basal condition” value (isolated mouse islets; 10 nM, 2.8 mM glucose) was “+17.3%”, the “stimulation of insulin secretion in response to glucose” value (isolated mouse islets; 10 nM, glucose 16.6 mM, p=0.06) was “+25.8%” and the “increase in islet insulin content” value (isolated mouse islets; 10 nM, p<0.05) was “+33.7%”. For the same compound, the “insulin production, secretion and content” value (isolated mouse islets; 100 nM) was “no effect”.

From patent US11491117B2, “Compounds for the prevention and treatment of glucose intolerance related conditions and obesity” (SORBONNE UNIVERSITÉ, priority 2017, dated 2022)
